Data as given in patent US6407072B1, “Lysoganglioside derivatives” (Fidia S.p.A., priority 1988, dated 2002).

Assays:
cerebral granule cells [1] = test: Glutamate-induced neurotoxicity in primary cultures of cerebral granule cells (cell survival); format: cell-based, rat; details: for protection of cells from neurotoxic effect of glutamate, cotreatment: cotreatment 15 minutes with glutamate 50 μM; for protection from neurotoxic effect, cotreatment and prolonged incubation: cotreatment 35 minutes with glutamate, then prolonged exposure (35 minutes); for reversal of neurotoxic effect of glutamate by post-treatment: post-treatment 20 minutes, after glutamate administered intermittently; for prevention of glutamate-induced neurotoxicity: pretreatment for 2 hours; for concentration required for maximum protective effect: pretreatment
Protocol: (§1) 1.a. Primary cultures of cerebral granule cells from 8-day-old Sprague Dawley rats (Zivic Miller) [Gallo V. et al., Proc. Natl. Acad. Sci. USA 79, 7919-7923 (1982)]. These cultures contain >90% of granule cells, <5% of GABAergic neurons and <5% of glial cells [Vaccarino F. M. et al., J. Neurosci. 7, 65-76 (1987)]. The cells were used for the experiments on the 8th and 9th days of culture.
(§2) On the 8th and 9th days of culture, concentrations varying between 7 and 100 μM of the following substances are added: N-dichloro acetyl lyso GM1, N-monochloro acetyl lyso GM1, GT1b, GM1. More particularly, the monolayers of granule cells are preincubated with these compounds in Locke's solution (1 ml) for 120 minutes (or for periods of time varying between 0 and 120 minutes) at 37° C. Gangliosides and derivatives are previously dissolved and subsequently diluted, if necessary, in methanol: H2O/95:5. Aliquots of the solution are dried in a N2 current and gathered with a suitable volume of Locke's solution until the final concentration is reached.
1.c. Glutamate-induced neurotoxicity.
The neurotoxic effect of glutamate was assessed under various experimental conditions:
Influence of incubation time ([…]) of the substances before exposure to glutamate: intact cells are preincubated with N-dichloro acetyl lyso GM1, N-monochloro acetyl lyso GM1 (7 μM) and GT1b (60 μM) at 37° C. After removal of excess compound by washing, the cells are incubated with 50 μM of glutamate in the absence of Mg+2 for 15 minutes at room temperature after which the cells are washed three more times and then replaced in the medium. Cell survival is assessed after 24 hours by histochemical techniques, or after […] staining which gives green fluorescence to live cells and red to non-living cells.
Influence of the time interval between pre-treatment with ganglioside derivatives or gangliosides themselves and exposure to glutamate: intact granule cells are preincubated for 2 hours at 37° C. with N-dichloro acetyl lyso GM1 (7 μM) GT1b and GM1 (100 μM). Excess compound is removed by washing and the cells exposed to 50 μM of glutamate (in the absence of Mg^+2) for 15 minutes after various time intervals (1, 2, 4, 6, 12, 18, 24 and 48 hours).
Effect of simultaneous treatment with glutamate and gangliosides: intact granule cells are treated (15 and 35 minutes) with 50 μM of glutamate and the gangliosides N-dichloro acetyl lyso GM1 (7 μM), GT1b and GM1 (100 μM) . In the first type of experiment (cotreatment for 15 minutes) the excess compound is removed by washing, and then cell survival is assessed according to the described method. In the second type of experiment (cotreatment for […]) the cotreatment is prolonged for another 35 minutes of exposure to gangliosides.
Effect of N-dichloro acetyl lyso GM1 following intermittent exposure to glutamate: granule cells are exposed intermittently to glutamate and treated with N-dichloro acetyl lyso GM1 (7 μM) for 20 minutes (in the absence of Mg2+). The excess product is removed by washing.

PKC [2] = test: Translocation of PKC induced by glutamate: [3H]-phorbol ester binding on intact cells; format: cell-based, rat; details: for inhibition of PKC translocation, cotreatment and prolonged incubation: cotreatment 35 minutes with glutamate, then prolonged exposure (35 minutes)
Protocol: as §1, §2
1.d. Translocation of PKC induced by glutamate: assessment of [3H]-phorbol ester binding on intact cells.
The effects of binding of [3H]-phorbol ester are assessed under two different types of experimental conditions: […]
[…] After cotreatment the cells-are washed and [^3H]-PDBu binding is assessed in the presence of Mg^+2. Granule cells are grown on discs measuring 35 mm in diameter and then washed and incubated with Locke's solution containing 4-B-[^3H]-phorbol-12, 13-dibutyrate [^3H]-P(Bto)2, 12.5 Ci/mmol (1 Ci=37 GBq; New England Nuclear), in 0.1% fatty acid-free bovine albumin serum (Sigma Chemical Co.). […] The binding is constant for over one hour. After incubation the cells are washed 3 times with cold Locke's solution and suspended with NaOH 0.1M. The aliquots of suspension are used for protein determination [Lowry O. H. et al., J. Biol. Chem. 193, 256-275 (1951)]. Non-specific binding is assessed in the presence of 2 μM phorbol 12-tetradecanoate 13-acetate (PTA).

Granule cells = test: N2 anoxia in granule cells, viability by MTT; format: cell-based, rat; details: for protection against endogenous glutamate-induced neurotoxicity under anoxic conditions: anoxia in N2 chamber; for MTT O.D. (570-630): N2 anoxia in absence of Mg2+; for MTT O.D. (570-630) / MTT O.D. as % of Control (+ MG^2+): MTT after 24 hours; for MTT O.D. as % of Control (+ MG^2+): N2 anoxia
Protocol: Pretreatment was performed with LIGA 20 and 21 for 10 minutes, and with GM1 for 60 minutes. The cells are washed with serum and placed in anoxic conditions in the absence of Mg^+2 for 5 hours and replaced in the culture medium. Cell viability was measured 24 hours after with MTT.
as §1
Effect of N-dichloro acetyl lyso GM1 following cell anoxia (in N2 chamber) on protection from endogenous glutamate-induced neurotoxicity. Cell viability is assessed by colorimetry after 24 hours (MTT stains only live cells).

new-born rat = test: NMDA-induced neurotoxicity in new-born rat (mortality); format: in vivo; details: for mortality (deceased/treated) / relative mortality (% of treated): up to 5 days; for protection from mortality following i.c.v. injection of NMDA: s.c., 1 hour before and immediately after NMDA
Protocol: Newborn rats (7 days old) weighing about 13 g are injected with 25 nmol NMDA i.c.v. Under these conditions the excitotoxin induces a decrease of 28% in weight of the injected hemisphere and a mortality rate of 53.6%.
Administration of the compounds: injection method and parameters observed. […] The compounds were solubilized in PBS. The N-dichloro acetyl lyso GM1 and N-monochloro acetyl lyso GM1 derivatives were tested in comparison to magnesium sulfate, MK-801 (a non-competitive […] of the NMDA receptor) [G. McDonald et al., Eur. J. Pharmacol. 140: 153-157 (1987)] and kinurenic acid [P. Andiné, Neuro-science Letters, 90: 208-212 (1988)] which is capable of diminishing brain damage. Mortality was assessed 5 days after MNDA injection.

[3] = test system: Mouse neuroblastoma cells (N2A); test: Neuritogenic activity in N2A cells: morphology, % of cells with neurites; format: cell-based
Protocol: Mouse neuroblastoma cells (N2A) at the 180th passage are placed in wells at a concentration of 10,000 cells per well (COSTAR-24). The next day the medium was substituted with 350 μl of DMEM+P/G+10% FCS.
All compounds are dissolved in chloroform/methanol 2:1 dried in N2 current and resuspended in DMEM+P/G+10% FCS. The number of neurites is assessed 24 hours later.

[4] = test system: Mouse neuroblastoma cells (N2A); test: 3H Tdr in N2A cells; format: cell-based
[5] = test system: Mouse neuroblastoma cells (N2A); test: MTT in N2A cells; format: cell-based
cerebral granule cells [6] = details: literature reports; cited from earlier work
PKC [7] = details: exposure of cerebral granule cells; literature reports; cited from earlier work
[8] = cotreatment with glutamate 50 μM, 7 μM
[9] = 200 nMoli/animal sc, 1 hr before and immediately after NMDA 25 nMoli i.c.v.
[10] = 75 nMoli/animal (2 mg/kg) i.p., 1 hr before and immediately after NMDA
[11] = preincubated 2 hours at 100 μM, glutamate 50 μM

| Molecule | concentration required for maximum protective effect (cerebral granule cells [1]; glutamate 50 μM) [µM] | protection against endogenous glutamate-induced neurotoxicity under anoxic conditions (Granule cells) | MTT O.D. (570-630) (Granule cells; pretreated 5 μm, 10 min) [O.D.] | MTT O.D. as % of Control (+ MG^2+) (Granule cells; pretreated 5 μm, 10 min) [%] | mortality (deceased/treated) (new-born rat; [9]) | relative mortality (% of treated) (new-born rat; [9]) [%] | protection from mortality following i.c.v. injection of NMDA (new-born rat) | Morphology (24 hr) % of cells with neurites ([3]; 1 × 10^−4 M) | ^3H Tdr. (48 hr) n = 3 ([4]; 1 × 10^−4 M) | MTT (48 hr) n = 3 ([5]; 1 × 10^−4 M) | protection of cells from neurotoxic effect of glutamate, cotreatment (cerebral granule cells [1]; 100 μM) | protection from neurotoxic effect, cotreatment and prolonged incubation (cerebral granule cells [1]; 100 μM) | persistence of protective effect on glutamate-induced neurotoxicity after removal of the medium (cerebral granule cells [1]; [11]) | inhibition of PKC translocation, cotreatment and prolonged incubation (PKC [2]; 100 μM) | protection from glutamate-induced cell damage (cerebral granule cells [6]) | translocation and activation of PKC induced by glutamate (PKC [7]) | further results |
| --- | --- | --- | --- | --- | --- | --- | --- | --- | --- | --- | --- | --- | --- | --- | --- | --- | --- |
| CCCCCCCCCCCCCC=CC(O)C(COC1OC(CO)C(OC2OC(CO)C(OC3OC(CO)C(O)C(OC4OC(CO)C(O)C(O)C4O)C3NC(C)=O)C(OC3(C(=O)O)CC(O)C(NC(C)=O)C(C(O)C(O)CO)O3)C2O)C(O)C1O)NC(=O)C(Cl)Cl (stereo not drawn) [LIGA 20, N-dichloroacetyl Lyso GM1] | 7 | active | 0.163 ± 0.012 | 112 | 1/8 | 12.5 | protected |  |  |  |  |  |  |  |  |  | concentration for maximum effect, times less than that of GT1b (cerebral granule cells [1]; 7 μM vs 60 μM): more than 8 times; preincubation time after which protection is evident (cerebral granule cells [1]; 7 μM, glutamate 50 μM): 5 min; protection of cells from neurotoxic effect of glutamate, cotreatment (cerebral granule cells [1]; 7 μM): effective; protection from neurotoxic effect, cotreatment and prolonged incubation (cerebral granule cells [1]; 7 μM): effective; reversal of neurotoxic effect of glutamate by post-treatment (cerebral granule cells [1]; 7 μM): prevents; reversal of neurotoxic effect of glutamate by post-treatment (cerebral granule cells [1]; 7 μM, listed as N-dichloro acetyl lyso GM1): active; persistence of protective effect on glutamate-induced neurotoxicity after removal of the medium (cerebral granule cells [1]; preincubated 2 hours at 7 μM, glutamate 50 μM): at least 24 hours; prevention of glutamate-induced neurotoxicity (cerebral granule cells [1]; 7 μM, glutamate 50 μM): almost totally prevents; inhibition of PKC translocation, cotreatment and prolonged incubation (PKC [2]; 7 μM): effective; inhibition of PKC translocation induced by glutamate, cotreatment (PKC [2]; [8]): inhibits; time of maximum activity in inhibiting PKC translocation (PKC [2]; [8]): 30 min |
| CCCCCCCCCCCCC/C=C/[C@@H](O)[C@H](CO[C@@H]1O[C@H](CO)[C@@H](O[C@@H]2O[C@H](CO)[C@H](O[C@@H]3O[C@H](CO)[C@H](O)[C@H](O[C@@H]4O[C@H](CO)[C@H](O)[C@H](O)[C@H]4O)[C@H]3NC(C)=O)[C@H](O[C@]3(C(=O)O)C[C@H](O)[C@@H](NC(C)=O)[C@H]([C@H](O)[C@H](O)CO)O3)[C@H]2O)[C@H](O)[C@H]1O)NC(=O)CCl [LIGA 21, N-Monochloroacetyl Lyso GM1] |  | active | 0.152 ± 0.013 | 105 | 0/8 | 0 | protected | 80-90% | 14256 ± 1594 | 0.158 ± 0.01 |  |  |  |  |  |  | concentration range of protection (cerebral granule cells [1]; glutamate-induced neurotoxicity): ~10 µM; Morphology (24 hr) % of cells with neurites ([3]; 5 × 10^−5 M): 80-90%; Morphology (24 hr) % of cells with neurites ([3]; 5 × 10^−6 M): <5%; ^3H Tdr. (48 hr) n = 3 ([4]; 5 × 10^−5 M): 36016 ± 5030; ^3H Tdr. (48 hr) n = 3 ([4]; 5 × 10^−6 M): 43035 ± 487; MTT (48 hr) n = 3 ([5]; 5 × 10^−5 M): 0.243 ± 0.008; MTT (48 hr) n = 3 ([5]; 5 × 10^−6 M): 0.324 ± 0.01 |
| C[C@]12N[C@H](Cc3ccccc31)c1ccccc12 [MK 801, reference compound] |  |  |  |  |  |  |  |  |  |  |  |  |  |  |  |  | mortality (deceased/treated) (new-born rat; [10]): 6/16; relative mortality (% of treated) (new-born rat; [10]): 37% |
| N′-monochloro acetyl lyso GM1 [LIGA 22] |  |  |  |  |  |  |  | <5% |  |  |  |  |  |  |  |  |  |
| monosialosyl-N-tetraglycosyl-ceramide [GM1, reference compound] |  |  |  |  |  |  |  | 70-80% | 40834 ± 1885 | 0.259 ± 0.007 | is not | effective | no more than 1 hours | effective | offer protection | inhibits | MTT O.D. (570-630) (Granule cells; pretreated 100 μM, 60 min): 0.160 ± 0.010 O.D.; MTT O.D. as % of Control (+ MG^2+) (Granule cells; pretreated 100 μM, 60 min): 110% |
| trisialosyl-N-tetraglycosylceramide [GT1b, reference compound] | 60 |  |  |  |  |  |  |  |  |  | is not | effective | 4 h | effective | offer protection | inhibits | incubation time after which protection is significant (cerebral granule cells [1]; 60 μM, glutamate 50 μM): 60 min; prevention of glutamate-induced neurotoxicity (cerebral granule cells [1]; 60 μM, glutamate 50 μM): almost totally prevents |
